From US6706755B2, “Cyclopentane heptan(ene) acyl sulfonamide, 2-alkyl or 2-arylalkyl, or 2-heteroarylalkenyl derivatives as therapeutic agents” (Allergan, Inc., priority 2001, dated 2004)

Tested on: Dogs
Experiment: Effect on dog intraocular pressure, applanation pneumatonometry
Format: in vivo
Conditions: for time (Hr) of IOP max % decrease / time (Hr) of IOP max mmHg / IOP max mmHg / IOP max % decrease: 25 μl to the ocular surface, concentration 0.03%; for IOP max mmHg / IOP max % decrease: at the time of maximum given in the cell; for IOP max % decrease: vehicle 0.1% polysorbate 80 and 10 mM TRIS base; for ocular hypotensive effect in dogs: topical ocular administration, result in words
Method: The compounds were prepared at the said concentrations in a vehicle comprising 0.1% polysorbate 80 and 10 mM TRIS base. Dogs were treated by administering 25 μl to the ocular surface, the contralateral eye received vehicle as a control. Intraocular pressure was measured by applanation pneumatonometry. […]

Row | Compound | time (Hr) of IOP max % decrease | time (Hr) of IOP max mmHg | IOP max mmHg | IOP max % decrease | ocular hypotensive effect in dogs
1 | Cc1cc(CC[C@H](O)/C=C/[C@@H]2[C@@H](C/C=C\CCCC(=O)NS(C)(=O)=O)[C@@H](O)C[C@H]2O)sc1Br [Compound 9a, N-((Z)-7-{(1R,2R,3R,5S)-2-[(S)-(E)-5-(5-Bromo-4-methylthiophen-2-yl)-3-hydroxypent-1-enyl]-3,5-dihydroxycyclopentyl}hept-5-enoyl)methanesulfonamide] | 72 h | 72 h | −2.8 mmHg | −13.6% | pronounced ocular hypotensive effect
2 | Cc1sc(CC[C@H](O)/C=C/[C@@H]2[C@@H](C/C=C\CCCC(=O)NS(C)(=O)=O)[C@@H](O)C[C@H]2O)cc1Cl [Compound 9b, N-((Z)-7-{(1R,2R,3R,5S)-2-[(S)-(E)-5-(4-Chloro-5-methylthiophen-2-yl)-3-hydroxypent-1-enyl]-3,5-dihydroxycyclopentyl}hept-5-enoyl)methanesulfonamide] | 96 h | 96 h | −4.9 mmHg | −26.5% | pronounced ocular hypotensive effect
3 | CS(=O)(=O)NC(=O)CCC/C=C\C[C@@H]1[C@@H](/C=C/[C@@H](O)CCc2ccc(Cl)s2)[C@H](O)C[C@@H]1O [Compound 9c] | 102 h | 102 h | −4.2 mmHg | −23.8% | pronounced ocular hypotensive effect
4 | CS(=O)(=O)NC(=O)CCC/C=C\C[C@@H]1[C@@H](/C=C/[C@@H](O)CCc2ccc(Br)s2)[C@H](O)C[C@@H]1O [Compound 9e] | 100 h | 100 h | −2.0 mmHg | −11.7% | pronounced ocular hypotensive effect
5 | CCS(=O)(=O)NC(=O)CCC/C=C\C[C@@H]1[C@@H](/C=C/[C@@H](O)CCc2cc(C)c(Br)s2)[C@H](O)C[C@@H]1O [Compound 10a, Ethanesulfonic acid ((Z)-7-{(1R,2R,3R,5S)-2-[(S)-(E)-5-(5-bromo-4-methylthiophen-2-yl)-3-hydroxypent-1-enyl]-3,5-dihydroxycyclopentyl}hept-5-enoyl)amide] | 4 h | 4 h | −5.1 mmHg | −24.9% | pronounced ocular hypotensive effect
6 | Cc1cc(CC[C@H](O)/C=C/[C@@H]2[C@@H](C/C=C\CCCC(=O)N(COC(=O)C(C)(C)C)S(C)(=O)=O)[C@@H](O)C[C@H]2O)sc1Br [Compound 18a] | 24 h | 24 h | −3.9 mmHg | −22.0% | pronounced ocular hypotensive effect
7 | Cc1sc(CC[C@H](O)/C=C/[C@@H]2[C@@H](C/C=C\CCCC(=O)NS(=O)(=O)c3ccccc3)[C@@H](O)C[C@H]2O)cc1Cl [Compound 19b] | 74 h | 74 h | −2.6 mmHg | −13.0% | pronounced ocular hypotensive effect
